From ChEMBL document CHEMBL1122221, “Antimycotic azoles. 6. Synthesis and antifungal properties of terconazole, a novel triazole ketal” (1983)

Assays:
[1] = system: Cavia porcellus; assay: Evaluated for marked improvement against trichophytosis after topical treatment with 0.5% of compound in a group of 6 guinea pigs; type: functional
[2] = system: Trichophyton benhamiae; assay: Concentration for complete inhibition of growth of Trichophyton mentagrophytes; type: functional, organism-based; conditions: Arthroderma benhamiae
[3] = system: Sporothrix schenckii; assay: Concentration for complete inhibition of growth of Sporo thrix schenck ii; type: functional, organism-based
[4] = system: Mucor; assay: Concentration for complete inhibition of growth of Mucor sp.; type: functional
[5] = system: Cavia porcellus; assay: Evaluated for cure against microsporosis after topical treatment with 1% of compound in a group of 8 guinea pigs; type: functional
[6] = system: Cavia porcellus; assay: Evaluated for marked improvement against microsporosis after topical treatment with 0.5% of compound in a group of 8 guinea pigs; type: functional
[7] = system: Cavia porcellus; assay: Evaluated for cure against trichophytosis after topical treatment with 1% of compound in a group of 6 guinea pigs; type: functional
[8] = system: Saprolegnia; assay: Concentration for complete inhibition of growth of Saprolegnia sp.; type: functional, organism-based
[9] = system: Microsporum canis; assay: Concentration for complete inhibition of growth of Microsporum canis; type: functional, organism-based
[10] = system: Aspergillus fumigatus; assay: Concentration for complete inhibition of growth of Aspergillus fumigatus; type: functional, organism-based
[11] = system: Candida albicans; assay: Concentration for complete inhibition of growth of Candida albicans; type: functional, organism-based
[12] = system: Trichophyton rubrum; assay: Concentration for complete inhibition of growth of Trichophyton rubrum; type: functional, organism-based
[13] = system: Candida tropicalis; assay: Concentration for complete inhibition of growth of Candida tropicalis; type: functional, organism-based
[14] = system: Cryptococcus neoformans; assay: Concentration for complete inhibition of growth of Cryptococcus neo formans; type: functional, organism-based
[15] = system: Phialophora verrucosa; assay: Concentration for complete inhibition of growth of Phialophora uerrucosa; type: functional, organism-based
[16] = system: Rattus norvegicus; assay: Evaluated for marked improvement against vaginal candidosis after topical treatment with 0.5% of compound in a group of 10 rats; type: functional
[17] = system: Rattus norvegicus; assay: Evaluated for cure against vaginal candidosis after topical treatment with 1% of compound in a group of 10 rats; type: functional
[18] = system: Phialophora verrucosa; assay: Concentration for marked inhibition of growth of Phialophora verrucosa in Sabouraud broth with 10% inactive bovine serum; type: functional, organism-based
[19] = system: Rattus norvegicus; assay: Evaluated for cure against vaginal candidosis after 3 days of 2 times a day topical treatment with 0.5% of compound in a group of 48 rats; type: functional
[20] = system: Aspergillus fumigatus; assay: Concentration for complete inhibition of growth of Aspergillus fumigatus in Sabouraud broth with 10% inactive bovine serum; type: functional, organism-based
[21] = system: Saprolegnia; assay: Concentration for complete inhibition of growth of Saprolegnia sp. in Sabouraud broth with 10% inactive bovine serum; type: functional, organism-based
[22] = system: Cavia porcellus; assay: Evaluated for marked improvement against trichophytosis after 12 days of one time a day topical treatment with 0.5% of compound in a group of 20 guinea pigs; Improved; type: functional
[23] = system: Trichophyton rubrum; assay: Concentration for complete inhibition of growth of Trichophyton rubrum in Sabouraud broth with 10% inactive bovine serum; type: functional, organism-based
[24] = system: Phialophora verrucosa; assay: Concentration for marked inhibition of growth of Phialophora verrucosa in Sabouraud broth; type: functional, organism-based
[25] = system: Saprolegnia; assay: Concentration for marked inhibition of growth of Saprolegnia sp. in Sabouraud broth; type: functional, organism-based
[26] = system: Phialophora verrucosa; assay: Concentration for complete inhibition of growth of Phialophora verrucosa in Sabouraud broth with 10% inactive bovine serum; type: functional, organism-based
[27] = system: Candida albicans; assay: Concentration for complete inhibition of growth of Candida albicans in Sabouraud broth with 10% inactive bovine serum; type: functional, organism-based
[28] = system: Candida tropicalis; assay: Concentration for complete inhibition of growth of Candida tropicalis in Sabouraud broth with 10% inactive bovine serum; type: functional, organism-based
[29] = system: Sporothrix schenckii; assay: Concentration for marked inhibition of growth of Sporothrix schenck ii in Sabouraud broth with 10% inactive bovine serum; type: functional, organism-based
[30] = system: Sporothrix schenckii; assay: Concentration for complete inhibition of growth of Sporothrix schenck ii; type: functional, organism-based
[31] = system: Trichophyton benhamiae; assay: Concentration for complete inhibition of growth of Trichophyton mentagrophytes in Sabouraud broth with 10% inactive bovine serum; type: functional, organism-based; conditions: Arthroderma benhamiae
[32] = system: Mucor; assay: Concentration for marked inhibition of growth of Mucor sp. in Sabouraud broth; type: functional
[33] = system: Trichophyton benhamiae; assay: Concentration for marked inhibition of growth of Trichophyton mentagrophytes in Sabouraud broth; type: functional, organism-based; conditions: Arthroderma benhamiae
[34] = system: Microsporum canis; assay: Concentration for complete inhibition of growth of Microsporum canis in Sabouraud broth with 10% inactive bovine serum; type: functional, organism-based
[35] = system: Trichophyton rubrum; assay: Concentration for marked inhibition of growth of Trichophyton rubrum in Sabouraud broth; type: functional, organism-based
[36] = system: Mucor; assay: Concentration for complete inhibition of growth of Mucor sp. in Sabouraud broth with 10% inactive bovine serum; type: functional
[37] = system: Candida tropicalis; assay: Concentration for marked inhibition of growth of Candida tropicalis in Sabouraud broth with 10% inactive bovine serum; type: functional, organism-based
[38] = system: Candida tropicalis; assay: Concentration for marked inhibition of growth of Candida tropicalis in Sabouraud broth; type: functional, organism-based
[39] = system: Microsporum canis; assay: Concentration for marked inhibition of growth of Microsporum canis in Sabouraud broth with 10% inactive bovine serum; type: functional, organism-based
[40] = system: Microsporum canis; assay: Concentration for marked inhibition of growth of Microsporum canis in Sabouraud broth; type: functional, organism-based
[41] = system: Aspergillus fumigatus; assay: Concentration for marked inhibition of growth of Aspergillus fumigatus in Sabouraud broth; type: functional, organism-based
[42] = system: Rattus norvegicus; assay: Evaluated for marked improvement against vaginal candidosis after 3 days of 2 times a day topical treatment with 0.5% of compound in a group of 48 rats; Improved; type: functional
[43] = system: Cryptococcus neoformans; assay: Concentration for complete inhibition of growth of Cryptococcus neoformans in Sabouraud broth with 10% inactive bovine serum; type: functional, organism-based
[44] = system: Aspergillus fumigatus; assay: Concentration for marked inhibition of growth of Aspergillus fumigatus in Sabouraud broth with 10% inactive bovine serum; type: functional, organism-based
[45] = system: Candida albicans; assay: Concentration for marked inhibition of growth of Candida albicans in Sabouraud broth with 10% inactive bovine serum; type: functional, organism-based
[46] = system: Saprolegnia; assay: Concentration for marked inhibition of growth of Saprolegnia sp. in Sabouraud broth with 10% inactive bovine serum; type: functional, organism-based
[47] = system: Sporothrix schenckii; assay: Concentration for marked inhibition of growth of Sporo thrix schenck ii in Sabouraud broth; type: functional, organism-based
[48] = system: Cryptococcus neoformans; assay: Concentration for marked inhibition of growth of Cryptococcus neoformans in Sabouraud broth; type: functional, organism-based
[49] = system: Cavia porcellus; assay: Evaluated for marked improvement against microsporosis after 12 days of one time a day topical treatment with 0.5% of compound in a group of 36 guinea pigs; Improved; type: functional
[50] = system: Phialophora verrucosa; assay: Concentration for complete inhibition of growth of Phialophora verrucosa; type: functional, organism-based
[51] = system: Cryptococcus neoformans; assay: Concentration for complete inhibition of growth of Cryptococcus neoformans; type: functional, organism-based
[52] = system: Mucor; assay: Concentration for marked inhibition of growth of Mucor sp. in Sabouraud broth with 10% inactive bovine serum; type: functional
[53] = system: Sporothrix schenckii; assay: Concentration for complete inhibition of growth of Sporothrix schenck ii in Sabouraud broth with 10% inactive bovine serum; type: functional, organism-based
[54] = system: Cavia porcellus; assay: Evaluated for cure against microsporosis after 12 days of one time a day topical treatment with 0.5% of compound in a group of 36 guinea pigs; type: functional
[55] = system: Trichophyton benhamiae; assay: Concentration for marked inhibition of growth of Trichophyton mentagrophytes in Sabouraud broth with 10% inactive bovine serum; type: functional, organism-based; conditions: Arthroderma benhamiae
[56] = system: Candida albicans; assay: Concentration for marked inhibition of growth of Candida albicans in Sabouraud broth; type: functional, organism-based
[57] = system: Cryptococcus neoformans; assay: Concentration for marked inhibition of growth of Cryptococcus neoformans in Sabouraud broth with 10% inactive bovine serum; type: functional, organism-based
[58] = system: Trichophyton rubrum; assay: Concentration for marked inhibition of growth of Trichophyton rubrum in Sabouraud broth with 10% inactive bovine serum; type: functional, organism-based
[59] = system: Cavia porcellus; assay: Evaluated for cure against trichophytosis after 12 days of one time a day topical treatment with 0.5% of compound in a group of 20 guinea pigs; type: functional

In the case of `Clc1ccccc1C(c1ccccc1)(c1ccccc1)n1ccnc1` [CLOTRIMAZOLE], the Improved [1] is reported as 1, the Concentration [2] is reported as less than 1 µg/mL and the Concentration [3] is reported as greater than 100 µg/mL. For the same molecule, the Concentration [4] was greater than 100 µg/mL, the Cure [5] was 4 and the Improved [6] was 1. It also gave a Cure [7] of 3, a Concentration [8] greater than 100 µg/mL and a Concentration [9] of less than 1 µg/mL. It also gave a Concentration [10] of 100 µg/mL, a Concentration [11] greater than 100 µg/mL and a Concentration [12] of less than 1 µg/mL. It also gave a Concentration [13] greater than 100 µg/mL, a Concentration [14] greater than 100 µg/mL and a Concentration [15] greater than 100 µg/mL. It also gave an Improved [16] of 2 and a Cure [17] of 2.
`CC(C)N1CCN(c2ccc(OCC3COC(Cn4cncn4)(c4ccc(Cl)cc4Cl)O3)cc2)CC1` (configuration not stated) [TERCONAZOLE] gave a Concentration [18] of 1 µg/mL, a Cure [19] of 35 and a Concentration [20] greater than 100 µg/mL. The Concentration [21] was 10 µg/mL, the Activity [22] was 0 and the Concentration [23] was 10 µg/mL. For the same molecule, the Concentration [24] was 10 µg/mL, the Concentration [2] was 1 µg/mL and the Concentration [25] was 10 µg/mL. For the same molecule, the Concentration [26] was 10 µg/mL, the Concentration [4] was greater than 100 µg/mL and the Concentration [27] was 100 µg/mL. The Concentration [28] was 1 µg/mL, the Concentration [29] was 1 µg/mL and the Concentration [30] was 100 µg/mL. For the same molecule, the Concentration [31] was 1 µg/mL, the Concentration [8] was 100 µg/mL and the Concentration [32] was greater than 100 µg/mL. For the same molecule, the Concentration [9] was 100 µg/mL, the Concentration [33] was 1 µg/mL and the Concentration [34] was 100 µg/mL. The Concentration [35] was 10 µg/mL, the Concentration [36] was 100 µg/mL and the Concentration [37] was 0.1 µg/mL. For the same molecule, the Concentration [38] was 1 µg/mL, the Concentration [10] was greater than 100 µg/mL and the Concentration [11] was greater than 100 µg/mL. For the same molecule, the Concentration [39] was 10 µg/mL, the Concentration [40] was 100 µg/mL and the Concentration [41] was greater than 100 µg/mL. For the same molecule, the Concentration [12] was 100 µg/mL, the Activity [42] was 2 and the Concentration [43] was 1 µg/mL. For the same molecule, the Concentration [44] was 100 µg/mL, the Concentration [13] was 10 µg/mL and the Concentration [45] was 0.1 µg/mL. It also gave a Concentration [46] of 1 µg/mL, a Concentration [47] of 100 µg/mL and a Concentration [48] of 1 µg/mL. The Activity [49] was 17, the Concentration [50] was 100 µg/mL and the Concentration [51] was 10 µg/mL. The Concentration [52] was 100 µg/mL, the Concentration [53] was 100 µg/mL and the Cure [54] was 19. It also gave a Concentration [55] of 0.1 µg/mL, a Concentration [56] of 10 µg/mL and a Concentration [57] of 0.1 µg/mL. It also gave a Concentration [58] of 1 µg/mL and a Cure [59] of 20.
